# Measurements published in patent publication US11434219B2, “Purification of cannabinoids from crude cannabis oil” (TABA IP, LLC, priority 2018, dated 2022).
# Test: Solvent survey: solubility of THCA in solvents
# Assay type: physicochemical
# Description: Crystallization of THCA solvent survey study is carried out according the general procedure described above at 0° C. using crystalline THCA standard (rather than cannabis oil). The solubility (g/mL) provided an indication of loading capacities: higher loading capacities are desirable to make the process more efficient. The theoretical yield of THCA is determined based on the purity of the standard, which was 97.4%.
structure (smiles),measurement,setting,value
"CCCCCc1cc2c(c(O)c1C(=O)O)[C@@H]1C=C(C)CC[C@H]1C(C)(C)O2 [THCA, tetrahydrocannabinolic acid]",Solubility (g/mL) 22.8° C.,solvent 1-Butanol,0.151 g/mL
same,Solubility (g/mL) 30° C.,solvent 1-Butanol,0.258 g/mL
same,Solubility (g/mL) 40° C.,solvent 1-Butanol,0.514 g/mL
same,Solubility (g/mL) 22.8° C.,solvent Acetone,0.818 g/mL
same,Solubility (g/mL) 30° C.,solvent Acetone,1.063 g/mL
same,Solubility (g/mL) 40° C.,solvent Acetone,1.440 g/mL
same,Solubility (g/mL) 22.8° C.,solvent Acetonitrile,0.562 g/mL
same,Solubility (g/mL) 30° C.,solvent Acetonitrile,0.953 g/mL
same,Solubility (g/mL) 40° C.,solvent Acetonitrile,1.230 g/mL
same,Solubility (g/mL) 22.8° C.,solvent DMA,0.498 g/mL
same,Solubility (g/mL) 30° C.,solvent DMA,0.650 g/mL
same,Solubility (g/mL) 40° C.,solvent DMA,0.892 g/mL
same,Solubility (g/mL) 22.8° C.,solvent DMF,0.612 g/mL
same,Solubility (g/mL) 30° C.,solvent DMF,0.929 g/mL
same,Solubility (g/mL) 40° C.,solvent DMF,1.171 g/mL
same,Solubility (g/mL) 22.8° C.,solvent Ethyl Acetate,0.555 g/mL
same,Solubility (g/mL) 30° C.,solvent Ethyl Acetate,0.931 g/mL
same,Solubility (g/mL) 40° C.,solvent Ethyl Acetate,1.216 g/mL
same,Solubility (g/mL) 22.8° C.,solvent Heptane,0.092 g/mL
same,Solubility (g/mL) 30° C.,solvent Heptane,0.155 g/mL
same,Solubility (g/mL) 40° C.,solvent Heptane,0.258 g/mL
same,Solubility (g/mL) 22.8° C.,solvent THF,0.743 g/mL
same,Solubility (g/mL) 30° C.,solvent THF,1.057 g/mL
same,Solubility (g/mL) 40° C.,solvent THF,1.324 g/mL
same,Solubility (g/mL) 22.8° C.,solvent n-Propanol,0.140 g/mL
same,Solubility (g/mL) 30° C.,solvent n-Propanol,0.360 g/mL
same,Solubility (g/mL) 40° C.,solvent n-Propanol,0.585 g/mL
